The values below come from patent US8679514B2, “Fungicidal mixtures based on azolopyrimidinylamines” (BASF SE, priority 2005, dated 2014).

In assay [1] the test system is Phytophthora infestans. The assay is described as follows: whole plant or invertebrate. Conditions: 144 h, read-out: Efficacy in % of the untreated control. In kind it is in vivo.
Assay [2] has as its system Pyricularia oryzae. Kind of assay: microbe, parasite or virus in culture. Conditions: for inhibition at 4 µg/mL / inhibition at 16 µg/mL / inhibition at 1 µg/mL / inhibition at 63 µg/mL / inhibition at 0.25 µg/mL: Pyricularia oryzae, read-out: Observed activity (%). In kind it is cell-based.
The test system of assay [3] is Phytophthora infestans. Kind of assay: microbe, parasite or virus in culture. Type of assay: cell-based.
Assay [4] relates to Botrytis cinerea. Kind of assay: Activity against the gray mold pathogen Botrytis cinerea in the microtiter test. In kind it is cell-based. Conditions: single active compound; for inhibition at 1 µg/mL: Conc. 1 mg/l; for inhibition at 0.25 µg/mL: Conc. 0.25 mg/l; for inhibition at […]: Conc. 0.063 mg/l.
[5] abbreviates: Phytophthora infestans, read-out: Observed activity (%).
[6] abbreviates: Botrytis cinerea, read-out: Observed activity (%).

For `Cc1ccc(-c2c(Cl)nc(C#N)n2S(=O)(=O)N(C)C)cc1` [cyazofamid, 4-chloro-2-cyano-N,N-dimethyl-5-(4-methylphenyl)-1H-imidazole-1-sulfon-amide, reference compound], the pest or weed control at 4 ppm in assay [1] was 33%. The inhibition at 4 µg/mL in assay [2] was 23%.

On to `CCCCCCCCc1nc2ncnn2c(N)c1CC` [Compound I-290, 6-ethyl-5-octyl-[1,2,4]triazolo[1,5-a]pyrimidin-7-ylamine], for which, in assay [3] (setting [5]), the inhibition at 0.25 µg/mL stood at 0%, the inhibition at 4 µg/mL worked out at 3% and the inhibition at […] amounted to 0%. The inhibition at 1 µg/mL in assay [4] (setting [6]) amounted to 4%.

With `CO/C=C(/C(=O)OC)c1ccccc1Oc1cc(Oc2ccccc2C#N)ncn1` [azoxystrobin], the “Observed activity (%)” value in assay [3] is given as 21%.

For the compound maneb, the “Observed activity (%)” value is given as 6% in assay [3] and 32% in assay [2].

With `CC(C)NC(=O)N1CC(=O)N(c2cc(Cl)cc(Cl)c2)C1=O` [iprodione, N-isopropyl-3-(3,5-dichlorophenyl)-2,4-dioxoimidazolidine-1-carboxamide, reference compound], the inhibition at 4 µg/mL in assay [2] was 46%.

With `OC(Cc1ccccc1Cl)(Cn1nc[nH]c1=S)C1(Cl)CC1` (centres unmarked) [prothioconazole, 2-[2-(1-chlorocyclopropyl)-3-(2-chlorophenyl)-2-hydroxypropyl]-2,4-dihydro-[1,2,4]triazole-3-thione, reference compound], the inhibition at 4 µg/mL in assay [2] worked out at 11%; in assay [4] (Botrytis cinerea, Conc. 4 mg/l, read-out: Observed activity (%)), 48%.

Consider `CC(C)OC(=O)N[C@H](C(=O)N[C@H](C)c1nc2ccc(F)cc2s1)C(C)C` [flubenthiavalicarb], for which, in assay [3], the “Observed activity (%)” value amounted to 68%.

As for `CC1CN(C2CCCCCCCCCCC2)CC(C)O1` (centres unmarked) [dodemorph], the inhibition at 16 µg/mL in assay [2] is 72%.

Take `O=C1c2ccccc2C(=O)N1SC(Cl)(Cl)Cl` [folpet]: the inhibition at 1 µg/mL in assay [3] (setting [5]) was 6%; in assay [4] (setting [6]), 2%.

Take `COC(=O)NC(=S)Nc1ccccc1NC(=S)NC(=O)OC` [thiophanate-methyl]: the inhibition at 0.25 µg/mL in assay [4] (setting [6]) is 12%.

Turning to `CCCN(CCOc1c(Cl)cc(Cl)cc1Cl)C(=O)n1ccnc1` [prochloraz], in assay [3] (setting [5]), the inhibition at 16 µg/mL was 6%.

With `CC(CCc1c(C(F)(F)F)nc2ncnn2c1N)CC(C)(C)C` (centres unmarked) [Compound I-101, 5-trifluoromethyl-6-(3,5,5-trimethylhexyl)-[1,2,4]triazolo[1,5-a]pyrimidin-7-ylamine], in assay [3] (setting [5]), the inhibition at 0.25 µg/mL came out at 3% and the inhibition at 4 µg/mL is 9%. Further, in assay [2], the inhibition at 1 µg/mL was 15%, the inhibition at 4 µg/mL came out at 16% and the inhibition at 16 µg/mL was 25%. Also, the inhibition at 1 µg/mL in assay [4] (setting [6]) was 1%.

For the compound `COCC(=O)N(c1c(C)cccc1C)N1CCOC1=O` [oxadixyl], in assay [3] (setting [5]), the inhibition at 1 µg/mL was 0%, the inhibition at 4 µg/mL worked out at 2% and the inhibition at 16 µg/mL was determined as 17%.

Regarding `CC(C)(C)C(O)(CCc1ccc(Cl)cc1)Cn1cncn1` (centres unmarked) [tebuconazole], in assay [3] (setting [5]), the inhibition at 1 µg/mL was determined as 8%, the inhibition at 4 µg/mL came to 10% and the inhibition at 16 µg/mL is 9%. In addition, in assay [4] (setting [6]), the inhibition at 0.25 µg/mL turned out to be 50%.

Turning to `CO/N=C(/C1=NOCCO1)c1ccccc1Oc1ncnc(Oc2ccccc2Cl)c1F` [fluoxastrobin], in assay [3] (setting [5]), the inhibition at 0.025 µg/mL amounted to 2% and the inhibition at […] worked out at 1%.

Regarding `O=C1C2CC=CCC2C(=O)N1SC(Cl)(Cl)Cl` (centres unmarked) [captan, 2-trichloromethylsulfanyl-3a,4,7,7a-tetrahydroisoindole-1,3-dione, reference compound], the inhibition at 1 µg/mL in assay [3] (setting [5]) stood at 12%; in assay [2], 44%.

With `O=S(=O)([O-])[O-].[Cu+2]` [CuSO4, reference compound], the “Observed activity (%)” value in assay [2] and in assay [4] (Conc. 63 mg/l) was 0% each time.

As for `CC(C1CC1)C(O)(Cn1cncn1)c1ccc(Cl)cc1` (centres unmarked) [cyproconazole], the inhibition at 4 µg/mL worked out at 9% in assay [3] (setting [5]) and 54% in assay [2].

With `O=C(Nc1ccccc1-c1ccc(Cl)cc1)c1cccnc1Cl` [boscalid], in assay [3] (setting [5]), the inhibition at 1 µg/mL was found to be 2% and the inhibition at 4 µg/mL turned out to be 17%. In assay [2], the inhibition at 63 µg/mL was found to be 12%.

`Cc1cccc(C)c1N(C(=O)CCl)C1CCOC1=O` (centres unmarked) [ofurace]: in assay [3] (setting [5]), the inhibition at 4 µg/mL came out at 0% and the inhibition at 16 µg/mL was 19%.

Turning to `C[Si](Cn1cncn1)(c1ccc(F)cc1)c1ccc(F)cc1` [flusilazole], in assay [3] (setting [5]), the inhibition at 1 µg/mL stood at 0% and the inhibition at 4 µg/mL stood at 11%. Moreover, the inhibition at 0.25 µg/mL in assay [4] (setting [6]) stood at 43%.

As to “zinc ammoniate ethylenebis(dithiocarbamate) [metiram, reference compound]”, the “Observed activity (%)” value in assay [2] was 26%.

Regarding `Cc1cc(C2CC2)nc(Nc2ccccc2)n1` [cyprodinil], the inhibition at 4 µg/mL in assay [3] (setting [5]) turned out to be 10%.

With `CCCCCCCCc1c(C(F)(F)F)nc2ncnn2c1N` [Compound I-98, 6-octyl-5-trifluoromethyl-[1,2,4]triazolo[1,5-a]pyrimidin-7-ylamine], in assay [3] (setting [5]), the inhibition at 0.25 µg/mL worked out at 6%, the inhibition at 1 µg/mL stood at 16%, the inhibition at 4 µg/mL turned out to be 22% and the inhibition at […] was determined as 5%. Also, in assay [2], the inhibition at 0.25 µg/mL is 0%, the inhibition at 1 µg/mL was 0%, the inhibition at 4 µg/mL is 15% and the inhibition at 16 µg/mL is 43%. For the same compound, in assay [4] (setting [6]), the inhibition at 0.25 µg/mL was found to be 4% and the inhibition at 1 µg/mL amounted to 5%.

In the case of `CO/C=C(/C(=O)OC)c1ccccc1CO/N=C(C)/C=C/c1ccc(Cl)cc1` [enestroburin], the “Observed activity (%)” value in assay [3] is 35%.

Turning to `N#Cc1c(Cl)c(Cl)c(Cl)c(C#N)c1Cl` [chlorothalonil], the inhibition at 1 µg/mL in assay [4] (setting [6]) is 55%.

As for `CCc1nc2ncnn2c(N)c1CCC(C)CC(C)(C)C` (centres unmarked) [Compound I-113, 5-ethyl-6-(3,5,5-trimethylhexyl)-[1,2,4]triazolo[1,5-a]pyrimidin-7-ylamine], the pest or weed control at 16 ppm in assay [1] was 22%. Moreover, in assay [3] (setting [5]), the inhibition at 0.25 µg/mL worked out at 3% and the inhibition at 4 µg/mL stood at 36%. The inhibition at 4 µg/mL in assay [2] was found to be 7%.

As to `O=c1c2cc(F)ccc2nc(-n2cncn2)n1-c1ccc(Cl)cc1Cl` [fluquinconazole, 3-(2,4-dichlorophenyl)-6-fluoro-2-[1,2,4]-triazol-1-yl-3H-quinazolin-4-one, reference compound], in assay [3] (setting [5]), the inhibition at 1 µg/mL was determined as 0%. The inhibition at 4 µg/mL in assay [3] (setting [5]) and in assay [2] was 0% throughout. In addition, the inhibition at […] in assay [4] (setting [6]) was 22%.

`COC(=O)Nc1nc2ccccc2[nH]1` [carbendazim]: the inhibition at 0.25 µg/mL in assay [2] came to 20%.

As to `COc1cc(C)c(C(=O)c2c(OC)ccc(Br)c2C)c(OC)c1OC` [metrafenone, 3′-bromo-2,3,4,6′-tetramethoxy-2′,6-dimethylbenzophenone, reference compound], the inhibition at 4 µg/mL in assay [3] (setting [5]) turned out to be 2%. Also, the inhibition at 63 µg/mL in assay [2] was determined as 42%.

`CC1CCN(c2c(-c3c(F)cc(F)cc3F)c(Cl)nc3ncnn23)CC1` [[D-8], 5-chloro-7-(4-methylpiperidin-1-yl)-6-(2,4,6-trifluorophenyl)-[1,2,4]triazolo[1,5-a]pyrimidine, reference compound]: the inhibition at 1 µg/mL in assay [3] (setting [5]) amounted to 43%.

On to `Cc1nc2ncnn2c(N)c1-c1ccc(Cl)c(Cl)c1` [Compound I-9, 6-(3,4-dichlorophenyl)-5-methyl-[1,2,4]triazolo[1,5-a]pyrimidin-7-ylamine], for which, in assay [3] (setting [5]), the inhibition at 0.016 µg/mL is 1%, the inhibition at 0.25 µg/mL worked out at 7% and the inhibition at […] came out at 6%. In addition, in assay [2], the inhibition at 0.25 µg/mL stood at 7% and the inhibition at 1 µg/mL stood at 13%. Further, the inhibition at 0.25 µg/mL in assay [4] (setting [6]) was 8%.

Regarding `CON=C(C(=O)OC)c1ccccc1CON=C(C)c1cccc(C(F)(F)F)c1` [trifloxystrobin], in assay [3] (setting [5]), the inhibition at 0.25 µg/mL worked out at 33% and the inhibition at 1 µg/mL stood at 46%.

Take `COCC(=O)N(c1c(C)cccc1C)C(C)C(=O)OC` (racemic) [metalaxyl, methyl N-(methoxyacetyl)-N-(2,6-xylyl)-DL-alaninate, reference compound]: in assay [1], the pest or weed control at 16 ppm came out at 33% and the pest or weed control at 63 ppm turned out to be 56%. In assay [3] (setting [5]), the inhibition at 1 µg/mL was 6% and the inhibition at 4 µg/mL came to 9%. For the same compound, the inhibition at 63 µg/mL in assay [2] was 2%.

`CCCC1COC(Cn2cncn2)(c2ccc(Cl)cc2Cl)O1` (centres unmarked) [propiconazole]: in assay [3] (setting [5]), the inhibition at 1 µg/mL was 1%, the inhibition at 4 µg/mL came out at 11% and the inhibition at 16 µg/mL was 12%.

In the case of `CC1COC(Cn2cncn2)(c2ccc(Oc3ccc(Cl)cc3)cc2Cl)O1` (centres unmarked) [difenoconazole], in assay [3] (setting [5]), the inhibition at 4 µg/mL worked out at 24%.

Regarding `O=[N+]([O-])c1cc(C(F)(F)F)c(Cl)c([N+](=O)[O-])c1Nc1ncc(C(F)(F)F)cc1Cl` [fluazinam], in assay [3] (setting [5]), the inhibition at 0.25 µg/mL stood at 9%. In assay [4] (setting [6]), the inhibition at […] was determined as 50%.

Consider `CSC1=N[C@@](C)(c2ccccc2)C(=O)N1Nc1ccccc1` [fenamidone], for which, in assay [3] (setting [5]), the inhibition at […] turned out to be 40%.

With `COC(=O)C(C)N(C(=O)Cc1ccccc1)c1c(C)cccc1C` (centres unmarked) [benalaxyl], the inhibition at 4 µg/mL in assay [3] (setting [5]) was found to be 13%.

Take `C=CC1(C)OC(=O)N(c2cc(Cl)cc(Cl)c2)C1=O` (centres unmarked) [vinclozolin]: the inhibition at 16 µg/mL in assay [3] (setting [5]) turned out to be 0%. The inhibition at 1 µg/mL in assay [4] (setting [6]) was found to be 21%.

For `COC(=O)N(OC)c1ccccc1COc1ccn(-c2ccc(Cl)cc2)n1` [pyraclostrobin], in assay [3] (setting [5]), the inhibition at 0.016 µg/mL came out at 14% and the inhibition at […] came out at 59%.
